Assay: Stability of -PH2 compounds under storage and reaction conditions
Type: physicochemical
Details: variety of solvents, wide pH range and temperature range
Source text: As a result of working with the NH2(CH2)3 PH2 intermediate, it was recognized that the intermediate was unexpectedly stable under a variety of storage and reaction conditions.
Furthermore, the reactivity of the —PH2 groups in these compounds toward molecules containing a wide spectrum of functional groups (including carboxylic acids, amines, thiols, and proteins) was remarkably low or non-measurable.

NCCCP [NH2(CH2)3 PH2, 3-Aminopropylphosphine]
stability under storage and reaction conditions: reasonably stable

From patent publication US6635235B1, “Bifunctional chelating agent for the design and development of site specific radiopharmaceuticals and biomolecule conjugation strategy” (The Curators of the University of Missouri, priority 1999, dated 2003)
